Test results: ChEMBL document CHEMBL1201862, “PubChem BioAssay data set” (2004)
Activity calls are given as the source filed them.

What was measured:
Type in all cases: functional
[1] = target: Serine/threonine-protein kinase Chk1 (Homo sapiens, UniProt O14757);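 further: measured as one member of a kinome-wide kinase profiling panel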
[2] = target: Fibroblast growth factor receptor 1 (Homo sapiens, UniProt P11362)
[3] = target: Serine/threonine-protein kinase 3 (Homo sapiens, UniProt Q13188);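 further: measured as one member of a kinome-wide kinase panel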
[4] = target: Serine/threonine-protein kinase TAO1 (Homo sapiens, UniProt Q7L7X3)
[5] = target: STE20-like serine/threonine-protein kinase (Homo sapiens, UniProt Q9H2G2)
[6] = target: Misshapen-like kinase 1 (Homo sapiens, UniProt Q8N4C8);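 further: kinome panel screen with MINK as the panel member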
[7] = target: RAC-gamma serine/threonine-protein kinase (Homo sapiens, UniProt Q9Y243)
[8] = target: Serine/threonine-protein kinase PAK 4 (Homo sapiens, UniProt O96013);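 further: value obtained within a kinome profiling panel in which PAK4 was one of the panel members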
[9] = target: Calcium/calmodulin-dependent protein kinase type 1 (Homo sapiens, UniProt Q14012)
[10] = target: Serine/threonine-protein kinase PLK1 (Homo sapiens, UniProt P53350);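 further: PLK1 measured as one member of a kinome-wide profiling panel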
[11] = target: Mitogen-activated protein kinase kinase kinase 20 (Homo sapiens, UniProt Q9NYL2)
[12] = target: Mitogen-activated protein kinase 1 (Homo sapiens, UniProt P28482)
[13] = target: Calcium/calmodulin-dependent protein kinase type II subunit alpha (Homo sapiens, UniProt Q9UQM7); test: Navigating the Kinome. Panel member name: CAMK2A
[14] = target: cAMP-dependent protein kinase catalytic subunit alpha (Homo sapiens, UniProt P17612)
[15] = target: RAC-alpha serine/threonine-protein kinase (Homo sapiens, UniProt P31749);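 further: AKT1 affinity measured as one member of a kinome-wide kinase profiling panel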
[16] = target: Protein kinase C zeta type (Homo sapiens, UniProt Q05513);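 further: measured as one member of a broad kinase profiling panel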
[17] = target: Cyclin-dependent kinase 2 (Homo sapiens, UniProt P24941);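 further: CDK2 measured as one member of a broad kinome profiling panel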
[18] = target: Serine/threonine-protein kinase BRSK1 (Homo sapiens, UniProt Q8TDC3);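 further: measured within a kinome-wide kinase panel, with the target listed as KIAA1811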
[19] = target: MAP kinase-activated protein kinase 2 (Homo sapiens, UniProt P49137);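 further: measured as one member of a kinome-wide kinase panel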
[20] = target: Protein kinase C delta type (Homo sapiens, UniProt Q05655)
[21] = target: Protein kinase C gamma type (Homo sapiens, UniProt P05129)
[22] = target: Glycogen synthase kinase-3 alpha (Homo sapiens, UniProt P49840);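 further: GSK3A result taken from a broad kinome-wide kinase panel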
[23] = target: Cyclin-dependent kinase 5 (Homo sapiens, UniProt Q00535);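 further: CDK5 measured as one member of a kinase profiling panel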
[24] = target: Serine/threonine-protein kinase pim-3 (Homo sapiens, UniProt Q86V86);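 further: value obtained as one member of a broad kinase panel profiling effort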
[25] = target: Serine/threonine-protein kinase pim-1 (Homo sapiens, UniProt P11309)
[26] = target: Tyrosine-protein kinase SYK (Homo sapiens, UniProt P43405)
[27] = target: Casein kinase II subunit alpha (Homo sapiens, UniProt P68400)
[28] = target: Mast/stem cell growth factor receptor Kit (Homo sapiens, UniProt P10721);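 further: KIT entry within a kinase panel assay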
[29] = target: Homeodomain-interacting protein kinase 4 (Homo sapiens, UniProt Q8NE63)
[30] = target: Mitogen-activated protein kinase kinase kinase kinase 2 (Homo sapiens, UniProt Q12851);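 further: measured as one member of a kinome-wide kinase panel, with MAP4K2 as the panel entry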
[31] = target: Dual specificity tyrosine-phosphorylation-regulated kinase 3 (Homo sapiens, UniProt O43781);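 further: measured as one member of a broad kinase panel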
[32] = target: Serine/threonine-protein kinase DCLK1 (Homo sapiens, UniProt O15075);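 further: affinity for DCLK1 (listed as DCAMKL1) measured as one member of a kinome-wide kinase profiling panel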
[33] = target: Serine/threonine-protein kinase Nek2 (Homo sapiens, UniProt P51955)
[34] = target: Serine/threonine-protein kinase 17A (Homo sapiens, UniProt Q9UEE5)
[35] = target: Dual specificity protein kinase CLK2 (Homo sapiens, UniProt P49760)
[36] = target: Protein kinase C iota type (Homo sapiens, UniProt P41743);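 further: measured within a kinome-wide kinase panel, PRKCI as panel member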
[37] = target: ALK tyrosine kinase receptor (Homo sapiens, UniProt Q9UM73);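 further: ALK tested as one member of a kinase panel screen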
[38] = target: Non-receptor tyrosine-protein kinase TYK2 (Homo sapiens, UniProt P29597)
[39] = target: Casein kinase I isoform gamma-1 (Homo sapiens, UniProt Q9HCP0);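 further: measured as the CSNK1G1 member of a kinome profiling panel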
[40] = target: Casein kinase I isoform alpha (Homo sapiens, UniProt P48729)
[41] = target: Serine/threonine-protein kinase D2 (Homo sapiens, UniProt Q9BZL6);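 further: measured against PRKD2 as one member of a kinome-wide kinase profiling panel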
[42] = target: Mitogen-activated protein kinase 13 (Homo sapiens, UniProt O15264)
[43] = target: Cyclin-dependent kinase 1 (Homo sapiens, UniProt P06493);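 further: Kinome-wide panel profiling, with the target listed as panel member CDC2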
[44] = target: Phosphorylase b kinase gamma catalytic chain, liver/testis isoform (Homo sapiens, UniProt P15735);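 further: PHKG2 measured as one member of a kinome-wide kinase panel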
[45] = target: Serine/threonine-protein kinase Nek4 (Homo sapiens, UniProt P51957)
[46] = target: Lymphokine-activated killer T-cell-originated protein kinase (Homo sapiens, UniProt Q96KB5);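 further: value comes from a kinase panel screen in which TOPK was one of the panel members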
[47] = target: MAP kinase-interacting serine/threonine-protein kinase 2 (Homo sapiens, UniProt Q9HBH9)

Sequence of Protein kinase C zeta type (Q05513 whole entry): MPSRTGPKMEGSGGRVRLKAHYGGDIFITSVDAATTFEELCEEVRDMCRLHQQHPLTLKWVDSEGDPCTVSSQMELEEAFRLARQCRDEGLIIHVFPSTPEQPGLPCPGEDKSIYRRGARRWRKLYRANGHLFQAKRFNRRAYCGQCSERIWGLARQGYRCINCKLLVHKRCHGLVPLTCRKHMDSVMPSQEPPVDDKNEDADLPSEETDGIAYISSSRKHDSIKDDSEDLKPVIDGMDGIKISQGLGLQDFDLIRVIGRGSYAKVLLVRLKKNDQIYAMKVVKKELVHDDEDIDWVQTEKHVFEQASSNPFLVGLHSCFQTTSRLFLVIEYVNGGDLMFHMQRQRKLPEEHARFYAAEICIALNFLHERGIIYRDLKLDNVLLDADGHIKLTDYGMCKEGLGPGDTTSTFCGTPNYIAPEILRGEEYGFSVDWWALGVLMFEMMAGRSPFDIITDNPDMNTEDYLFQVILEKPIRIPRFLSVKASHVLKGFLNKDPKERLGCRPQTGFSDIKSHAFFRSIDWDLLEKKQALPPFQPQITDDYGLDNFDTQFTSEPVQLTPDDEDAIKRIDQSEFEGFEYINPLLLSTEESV
Sequence of Calcium/calmodulin-dependent protein kinase type 1 (Q14012 whole entry): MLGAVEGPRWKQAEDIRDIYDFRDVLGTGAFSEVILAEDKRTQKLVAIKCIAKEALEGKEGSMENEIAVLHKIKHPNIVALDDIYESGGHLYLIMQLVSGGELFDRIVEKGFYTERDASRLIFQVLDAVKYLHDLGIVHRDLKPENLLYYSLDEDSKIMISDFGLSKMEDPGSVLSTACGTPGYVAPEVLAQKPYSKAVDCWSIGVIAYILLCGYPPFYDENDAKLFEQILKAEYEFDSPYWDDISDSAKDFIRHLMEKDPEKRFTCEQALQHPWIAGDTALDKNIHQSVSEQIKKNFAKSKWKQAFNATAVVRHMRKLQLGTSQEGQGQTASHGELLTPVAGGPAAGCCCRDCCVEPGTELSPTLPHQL
Sequence of Serine/threonine-protein kinase PLK1 (P53350 whole entry): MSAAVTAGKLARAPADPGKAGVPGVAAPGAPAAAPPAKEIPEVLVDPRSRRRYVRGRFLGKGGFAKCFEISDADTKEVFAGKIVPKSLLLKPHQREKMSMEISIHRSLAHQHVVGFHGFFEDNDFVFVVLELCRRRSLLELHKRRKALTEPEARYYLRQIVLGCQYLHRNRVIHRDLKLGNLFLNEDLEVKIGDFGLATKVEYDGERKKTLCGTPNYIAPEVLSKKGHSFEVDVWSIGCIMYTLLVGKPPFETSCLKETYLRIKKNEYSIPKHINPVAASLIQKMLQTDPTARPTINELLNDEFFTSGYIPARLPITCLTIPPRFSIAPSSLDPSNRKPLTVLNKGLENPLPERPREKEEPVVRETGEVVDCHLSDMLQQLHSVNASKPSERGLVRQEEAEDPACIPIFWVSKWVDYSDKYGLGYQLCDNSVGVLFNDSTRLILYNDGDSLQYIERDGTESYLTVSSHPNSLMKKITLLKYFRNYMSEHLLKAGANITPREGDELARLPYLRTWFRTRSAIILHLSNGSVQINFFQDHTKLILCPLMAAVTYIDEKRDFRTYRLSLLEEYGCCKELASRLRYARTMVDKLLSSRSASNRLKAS
Sequence of Serine/threonine-protein kinase DCLK1 (O15075 whole entry): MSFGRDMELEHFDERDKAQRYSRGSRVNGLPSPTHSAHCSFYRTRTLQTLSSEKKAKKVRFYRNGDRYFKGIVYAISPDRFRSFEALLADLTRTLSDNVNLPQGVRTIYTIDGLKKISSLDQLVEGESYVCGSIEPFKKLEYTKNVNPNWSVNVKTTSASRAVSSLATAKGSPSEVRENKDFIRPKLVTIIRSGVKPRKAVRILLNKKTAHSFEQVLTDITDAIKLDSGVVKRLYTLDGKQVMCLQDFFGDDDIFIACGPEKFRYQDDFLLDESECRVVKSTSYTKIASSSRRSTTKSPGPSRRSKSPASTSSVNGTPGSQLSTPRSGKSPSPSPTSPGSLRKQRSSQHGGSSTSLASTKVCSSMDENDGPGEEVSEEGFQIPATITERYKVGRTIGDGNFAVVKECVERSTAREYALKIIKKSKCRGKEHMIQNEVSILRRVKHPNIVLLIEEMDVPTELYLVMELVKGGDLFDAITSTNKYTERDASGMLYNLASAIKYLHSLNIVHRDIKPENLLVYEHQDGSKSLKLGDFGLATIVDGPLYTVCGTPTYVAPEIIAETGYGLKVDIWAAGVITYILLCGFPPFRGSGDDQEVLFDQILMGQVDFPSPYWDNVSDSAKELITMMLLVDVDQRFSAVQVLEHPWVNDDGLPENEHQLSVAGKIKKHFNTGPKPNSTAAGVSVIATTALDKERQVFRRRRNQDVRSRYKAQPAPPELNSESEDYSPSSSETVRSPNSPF
Sequence of Non-receptor tyrosine-protein kinase TYK2 (P29597 whole entry, canonical isoform): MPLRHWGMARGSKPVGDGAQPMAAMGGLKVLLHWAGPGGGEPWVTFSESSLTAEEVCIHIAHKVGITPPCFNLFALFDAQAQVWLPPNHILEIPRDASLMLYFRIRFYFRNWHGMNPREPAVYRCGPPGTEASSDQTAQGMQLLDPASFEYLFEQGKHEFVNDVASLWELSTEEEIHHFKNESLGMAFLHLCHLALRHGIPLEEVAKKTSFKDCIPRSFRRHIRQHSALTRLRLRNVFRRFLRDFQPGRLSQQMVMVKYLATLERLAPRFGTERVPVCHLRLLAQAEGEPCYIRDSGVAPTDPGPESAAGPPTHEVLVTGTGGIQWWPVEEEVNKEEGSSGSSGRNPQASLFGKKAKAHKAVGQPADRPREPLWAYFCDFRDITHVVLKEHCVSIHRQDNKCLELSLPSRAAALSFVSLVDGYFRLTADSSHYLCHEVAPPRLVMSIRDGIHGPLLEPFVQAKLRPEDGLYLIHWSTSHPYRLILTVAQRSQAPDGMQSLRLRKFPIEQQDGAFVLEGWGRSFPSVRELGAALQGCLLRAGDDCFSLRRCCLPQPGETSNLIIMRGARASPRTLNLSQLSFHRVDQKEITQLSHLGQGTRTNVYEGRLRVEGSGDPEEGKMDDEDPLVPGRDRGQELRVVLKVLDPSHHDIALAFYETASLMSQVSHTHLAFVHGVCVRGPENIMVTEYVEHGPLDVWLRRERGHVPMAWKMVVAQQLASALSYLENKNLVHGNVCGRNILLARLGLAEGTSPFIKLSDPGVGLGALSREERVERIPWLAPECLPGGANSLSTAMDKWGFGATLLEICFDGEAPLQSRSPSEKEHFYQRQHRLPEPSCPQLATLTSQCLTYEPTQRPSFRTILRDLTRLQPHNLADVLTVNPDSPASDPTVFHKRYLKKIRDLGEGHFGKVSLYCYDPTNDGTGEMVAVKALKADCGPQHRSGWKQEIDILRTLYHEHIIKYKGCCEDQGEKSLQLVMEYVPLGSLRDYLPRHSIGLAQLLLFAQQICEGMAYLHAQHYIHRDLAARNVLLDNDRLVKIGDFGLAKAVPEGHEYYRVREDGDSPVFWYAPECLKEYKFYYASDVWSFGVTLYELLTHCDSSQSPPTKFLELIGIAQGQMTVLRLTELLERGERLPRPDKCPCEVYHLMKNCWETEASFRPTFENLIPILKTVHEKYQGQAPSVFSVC
Sequence of Protein kinase C delta type (Q05655 whole entry): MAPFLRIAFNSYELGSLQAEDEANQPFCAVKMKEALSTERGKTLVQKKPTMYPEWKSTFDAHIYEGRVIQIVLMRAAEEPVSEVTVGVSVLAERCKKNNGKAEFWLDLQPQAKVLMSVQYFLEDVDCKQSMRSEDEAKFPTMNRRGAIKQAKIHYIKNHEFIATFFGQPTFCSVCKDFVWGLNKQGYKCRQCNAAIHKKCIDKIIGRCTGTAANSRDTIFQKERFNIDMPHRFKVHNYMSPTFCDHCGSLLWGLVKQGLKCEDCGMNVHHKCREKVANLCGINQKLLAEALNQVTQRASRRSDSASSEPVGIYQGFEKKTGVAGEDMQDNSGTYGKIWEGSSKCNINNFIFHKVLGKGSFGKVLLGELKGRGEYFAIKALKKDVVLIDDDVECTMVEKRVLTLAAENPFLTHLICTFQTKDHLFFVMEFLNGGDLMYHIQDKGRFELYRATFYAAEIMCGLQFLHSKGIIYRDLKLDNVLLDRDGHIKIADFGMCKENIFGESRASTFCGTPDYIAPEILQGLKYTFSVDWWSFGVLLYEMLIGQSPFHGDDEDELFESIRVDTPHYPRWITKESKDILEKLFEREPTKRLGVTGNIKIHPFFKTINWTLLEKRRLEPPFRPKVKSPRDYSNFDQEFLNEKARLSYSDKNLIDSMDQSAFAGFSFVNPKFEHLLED
Sequence of Mitogen-activated protein kinase 1 (P28482 whole entry): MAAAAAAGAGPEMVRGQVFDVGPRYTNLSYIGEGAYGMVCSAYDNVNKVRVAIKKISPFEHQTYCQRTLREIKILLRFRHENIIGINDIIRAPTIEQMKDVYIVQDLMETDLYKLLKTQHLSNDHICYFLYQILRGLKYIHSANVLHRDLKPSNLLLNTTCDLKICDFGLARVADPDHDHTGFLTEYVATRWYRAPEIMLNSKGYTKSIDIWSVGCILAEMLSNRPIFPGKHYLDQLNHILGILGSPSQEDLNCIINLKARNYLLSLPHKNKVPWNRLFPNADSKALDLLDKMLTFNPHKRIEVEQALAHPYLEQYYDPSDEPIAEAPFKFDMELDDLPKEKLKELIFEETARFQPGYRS
Sequence of Glycogen synthase kinase-3 alpha (P49840 whole entry): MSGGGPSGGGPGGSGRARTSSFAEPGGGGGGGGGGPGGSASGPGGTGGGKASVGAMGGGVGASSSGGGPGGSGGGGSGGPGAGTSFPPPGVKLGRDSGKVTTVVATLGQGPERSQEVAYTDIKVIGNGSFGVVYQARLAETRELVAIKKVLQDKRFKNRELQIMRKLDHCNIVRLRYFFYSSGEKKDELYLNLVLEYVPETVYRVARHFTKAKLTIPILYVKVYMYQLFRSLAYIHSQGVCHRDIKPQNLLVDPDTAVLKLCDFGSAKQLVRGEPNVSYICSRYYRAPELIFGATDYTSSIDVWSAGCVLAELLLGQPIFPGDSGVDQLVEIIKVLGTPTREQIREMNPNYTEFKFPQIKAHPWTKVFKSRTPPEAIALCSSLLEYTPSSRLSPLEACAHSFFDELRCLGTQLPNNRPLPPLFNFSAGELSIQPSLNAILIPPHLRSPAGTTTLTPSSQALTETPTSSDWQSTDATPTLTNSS

NNc1cc(N2CCOCC2)nc(OCCc2ccccn2)n1
Ki [1]: > 7.94 µM (inactive) | Ki [2]: > 3.98 µM (inactive) | Ki [3]: > 7.94 µM (inactive) | Ki [4]: > 5.01 µM (inactive) | Ki [5]: > 10 µM (inactive) | Ki [6]: > 7.94 µM (inactive) | Ki [7]: > 10 µM (inactive) | Ki [8]: > 5.01 µM (inactive) | Ki [9]: > 5.01 µM (inactive) | Ki [10]: > 7.94 µM (inactive) | Ki [11]: > 7.94 µM (inactive) | Ki [12]: > 7.94 µM (inactive) | Ki [13]: > 7.94 µM (inactive) | Ki [14]: > 3.98 µM (inactive) | Ki [15]: > 7.94 µM (inactive) | Ki [16]: > 7.94 µM (inactive) | Ki [17]: > 7.94 µM (inactive) | Ki [18]: 7.94 µM (active) | Ki [19]: > 7.94 µM (inactive) | Ki [20]: > 7.94 µM (inactive) | Ki [21]: > 7.94 µM (inactive) | Ki [22]: > 7.94 µM (inactive) | Ki [23]: > 6.31 µM (inactive) | Ki [24]: > 7.94 µM (inactive) | Ki [25]: > 6.31 µM (inactive) | Ki [26]: 0.398 µM (active) | Ki [27]: > 6.31 µM (inactive) | Ki [28]: > 3.98 µM (inactive) | Ki [29]: > 7.94 µM (inactive) | Ki [30]: > 5.01 µM (inactive) | Ki [31]: > 6.31 µM (inactive) | Ki [32]: > 10 µM (inactive) | Ki [33]: > 10 µM (inactive) | Ki [34]: > 3.98 µM (inactive) | Ki [35]: > 5.01 µM (inactive) | Ki [36]: > 5.01 µM (inactive) | Ki [37]: > 6.31 µM (inactive) | Ki [38]: 1.58 µM (active) | Ki [39]: > 6.31 µM (inactive) | Ki [40]: > 5.01 µM (inactive) | Ki [41]: > 10 µM (inactive) | Ki [42]: > 7.94 µM (inactive) | Ki [43]: > 7.94 µM (inactive) | Ki [44]: > 5.01 µM (inactive) | Ki [45]: > 6.31 µM (inactive) | Ki [46]: > 10 µM (inactive) | Ki [47]: > 10 µM (inactive)
